Where no end group is shown, it is not given here.
Experiments:
[1] = double-blind placebo controlled; cited from earlier work
synaptosomal dopamine = details: cited from earlier work
release of serotonin = details: long lasting and dose dependent; cited from earlier work
[2] = cited from earlier work; for OA pain / joint function: people with OA
[3] = in vivo; cited from earlier work
[4] = Enkephalinase inhibitors in mice: brain enkephalins and alcohol preference; format: in vivo; details: for alcohol preference: acceptance and 14 day preference test; for brain enkephalins: d-phenylalanine 500 mg/kg/day 18 days, metabolite 25 micrograms i.c.v.
[5] = VTA / midbrain dopamine neurons; cited from earlier work
[6] = chronic treatment; cited from earlier work
[7] = direct microinjection; cited from earlier work
[8] = repeated stress; cited from earlier work
D2 receptors in the Nacc = biological target: T1, D2 receptors in the Nacc (Rattus norvegicus, UniProt P61169); details: bilateral, nmol/side; cited from earlier work
T1 construct: from tissue; host or cells: nucleus accumbens in vivo; study cited from the literature

[9] = tested on: brain dopamine and serotonin flux; details: cited from earlier work
[10] = Compliance with Trexan after rapid detoxification of methadone patients; format: in vivo, human; details: P<0.0001
Description: Over the last decade, a new rapid method to detoxify either methadone or heroin addicts utilizing TrexanR sparked interest in many treatment centers throughout the United States, Canada, as well as many countries on a worldwide basis. […] It may also be interesting too further test this hypothesis with the sublingual combination of the partial opiate mu receptor agonist buprenorphrine. The ingredients tested included DL-phenylalanine (2760 mg/day), L-Glutamine (150 mg/day), chromium picolinate (360 micrograms/day), pyridoxal-5-phosphate (30 mg/day). • Most recently a study was performed by Julia Ross best selling author of The Diet Cure (Viking Press USA, 1999; Penguin UK, Au, and USA, 2000), in an outpatient clinic in Mill Valley, Calif. involving amino-acid therapy and enkephalinase inhibition based on Blum's work. […]

[11] = cited from earlier work
[12] = cited from earlier work; remark: listed apart in the source
insulin receptor (IR) = biological target: T2, insulin receptor (IR) (Mus musculus, UniProt P15208); details: cited from earlier work
T2 construct: endogenous in cells; study cited from the literature

[13] = tested on: sweet and bitter receptors on the tongue; details: in vivo; cited from earlier work

T2 sequence (P15208 28-748 limits assumed): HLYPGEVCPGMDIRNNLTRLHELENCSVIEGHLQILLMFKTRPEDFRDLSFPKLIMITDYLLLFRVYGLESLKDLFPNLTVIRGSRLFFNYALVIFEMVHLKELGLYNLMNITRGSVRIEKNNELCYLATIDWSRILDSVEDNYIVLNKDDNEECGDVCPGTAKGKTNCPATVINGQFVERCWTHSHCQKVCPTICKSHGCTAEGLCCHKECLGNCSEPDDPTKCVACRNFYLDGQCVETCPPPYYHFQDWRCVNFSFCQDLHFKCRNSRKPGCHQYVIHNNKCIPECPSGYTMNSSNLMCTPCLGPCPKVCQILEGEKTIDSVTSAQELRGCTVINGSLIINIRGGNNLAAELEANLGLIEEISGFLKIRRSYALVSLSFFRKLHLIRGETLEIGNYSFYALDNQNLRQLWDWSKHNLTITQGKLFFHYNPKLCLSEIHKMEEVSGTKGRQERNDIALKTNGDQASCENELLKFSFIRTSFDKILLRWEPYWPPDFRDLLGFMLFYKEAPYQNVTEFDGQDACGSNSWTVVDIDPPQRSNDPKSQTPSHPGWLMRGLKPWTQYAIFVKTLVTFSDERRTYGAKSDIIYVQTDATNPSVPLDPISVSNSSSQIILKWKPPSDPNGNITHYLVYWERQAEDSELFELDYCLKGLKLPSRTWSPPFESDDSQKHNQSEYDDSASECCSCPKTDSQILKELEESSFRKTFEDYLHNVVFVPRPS
T2 sequence (P15208 753-1372 limits assumed): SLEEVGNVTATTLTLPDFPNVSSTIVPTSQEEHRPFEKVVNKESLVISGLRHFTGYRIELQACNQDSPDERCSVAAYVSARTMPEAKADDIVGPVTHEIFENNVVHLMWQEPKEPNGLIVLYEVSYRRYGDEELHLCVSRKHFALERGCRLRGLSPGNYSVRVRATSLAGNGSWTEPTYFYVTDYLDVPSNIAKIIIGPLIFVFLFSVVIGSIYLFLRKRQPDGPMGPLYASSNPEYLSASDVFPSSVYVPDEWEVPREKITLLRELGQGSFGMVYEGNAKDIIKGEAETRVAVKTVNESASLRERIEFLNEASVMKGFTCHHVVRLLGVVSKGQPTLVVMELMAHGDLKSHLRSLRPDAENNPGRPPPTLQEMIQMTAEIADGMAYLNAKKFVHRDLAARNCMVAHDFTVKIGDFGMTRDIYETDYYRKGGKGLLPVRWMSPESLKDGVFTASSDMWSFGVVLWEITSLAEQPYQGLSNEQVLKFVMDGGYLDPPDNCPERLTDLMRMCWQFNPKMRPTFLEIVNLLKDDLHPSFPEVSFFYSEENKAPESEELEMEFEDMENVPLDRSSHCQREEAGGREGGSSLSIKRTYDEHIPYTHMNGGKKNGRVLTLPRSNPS
T1 sequence (P61169 whole entry): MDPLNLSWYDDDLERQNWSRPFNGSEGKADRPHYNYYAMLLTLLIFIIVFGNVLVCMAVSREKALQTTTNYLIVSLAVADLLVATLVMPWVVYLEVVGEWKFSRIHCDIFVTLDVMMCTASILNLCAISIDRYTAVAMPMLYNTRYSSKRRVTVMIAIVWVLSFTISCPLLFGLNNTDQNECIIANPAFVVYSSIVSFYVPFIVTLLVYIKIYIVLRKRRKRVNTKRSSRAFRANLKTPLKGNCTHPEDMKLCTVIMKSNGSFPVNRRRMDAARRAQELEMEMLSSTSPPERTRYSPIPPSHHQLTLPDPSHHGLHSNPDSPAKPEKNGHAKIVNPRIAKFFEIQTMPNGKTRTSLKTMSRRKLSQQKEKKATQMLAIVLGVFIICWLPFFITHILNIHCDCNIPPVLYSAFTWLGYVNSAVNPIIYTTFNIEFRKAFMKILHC

NC(Cc1ccccc1)C(=O)O (racemic) [dl-phenylalanine]
psychosocial stress as measured by SCL [1]: reduces stress

CCn1cc(C(=O)O)c(=O)c2ccc(Cc3ccccc3)nc21 [Amfoelic acid]
release of dopamine formed from 14C-phenylalanine (synaptosomal dopamine): net release

N[C@@H](Cc1c[nH]c2ccc(O)cc12)C(=O)O [5-HTP, 5-hydroxy-l-tryptophan]
5-HT in dialysates (release of serotonin): immediate increase

CHONDROITIN SULFATE
OA pain / joint function [2]: significant improvement in pain and inflammation and improved joint function

O=S(=O)([O-])[O-].[O]=[V+2] [vanadyl, Vanadyl sulfate]
blood sugar levels [3]: very effective in normalizing blood sugar levels

N[C@H](Cc1ccccc1)C(=O)O [d-phenylalanine]
alcohol preference [4]: significantly reduced
brain enkephalins [4]: brain changes of the enkephalins

O=C(O)CCc1ccccc1 [hydrocunnamic acid, reference compound]
alcohol preference [4]: significantly reduced
brain enkephalins [4]: brain changes of the enkephalins

CN1CC[C@]23c4c5ccc(O)c4O[C@H]2[C@@H](O)C=C[C@H]3[C@H]1C5 [morphine]
tonic pain / analgesia in the formalin test [5]: induces analgesia
food intake [6]: decreased food intake

substance P (RPKPQQFFGLM; ends and bridges not checked; UniProt P20366 58-68, looked up) [SP, tachykinin neuropeptide, substance P]
tonic pain / analgesia in the formalin test [5]: inhibit tonic pain

N[C@H]1C(O)O[C@H](CO)[C@@H](O)[C@@H]1O (some centres unmarked) [glucosamine]
progression of the disease ([2]; knee OA, three years): slowed, if not stopped

CC(N)Cc1ccccc1 (centres unmarked) [Amphetamine]
release of dopamine formed from 14C-phenylalanine (synaptosomal dopamine): increased

CCCN1CCc2cccc3c2[C@H]1Cc1ccc(O)c(O)c1-3 [n-propylnor-apomorphine]
symptoms after withdrawal of opiates [7]: significantly suppresses

CN(C)CCCN1c2ccccc2CCc2ccc(Cl)cc21 [clomipramine]
development of hyperalgesia [8]: blocks

CCN1CCC[C@H]1CNC(=O)c1c(O)c(Cl)cc(Cl)c1OC [raclopride]
persistent phase of formalin-induced nociception (D2 receptors in the Nacc): blocked

CC(C)CC(N(C)C)C1(c2ccc(Cl)cc2)CCC1 (centres unmarked) [Sibutramine]
serotonin and dopamine concentrations in striatal and hypothalamic brain regions ([9]; higher doses): increased
serotonin and dopamine concentrations in dialysates ([9]; low doses): no effect

O=C1CC[C@@]2(O)[C@H]3Cc4ccc(O)c5c4[C@@]2(CCN3CC2CC2)[C@H]1O5 [Trexan]
average number of days of compliance [10]: 37 days

Oc1cc2c(cc1O)C(c1ccccc1)CNCC2 (centres unmarked) [SKF 38393]
persistent phase of formalin-induced nociception (D2 receptors in the Nacc): without effect

[Ca+2] [calcium]
lower body weight per 300 mg increment of regular intake ([11]; adults): 2.5 to 3.0 kg
weight loss compared to the placebo group ([11]; approximately 4 years of observation): significant weight loss
less body fat per 300 mg increment of regular intake ([11]; children): about 1 kg
reduction of prevalence of overweight and obesity (estimate) ([11]; increased intake): 60-80%

C[S+](CC[C@H](N)C(=O)[O-])C[C@H]1O[C@@H](n2cnc3c(N)ncnc32)[C@H](O)[C@@H]1O (stereo partly drawn) [SAM-e, S-adenosyl-L-methionine]
OA pain / joint function [2]: equal to NSAIDs

N[C@@H](Cc1c[nH]c2ccccc12)C(=O)O [tryptophan]
development of hyperalgesia [8]: blocks

CCN[C@@H](C)Cc1cccc(C(F)(F)F)c1 [d-fenfluramine]
consumption of a sucrose solution ([12]; non-deprived rats): reduced

O=C(OC[C@H]1O[C@@H](OC(=O)c2cc(O)c(O)c(OC(=O)c3cc(O)c(O)c(O)c3)c2)[C@H](OC(=O)c2cc(O)c(O)c(OC(=O)c3cc(O)c(O)c(O)c3)c2)[C@@H](OC(=O)c2cc(O)c(O)c(OC(=O)c3cc(O)c(O)c(O)c3)c2)[C@@H]1OC(=O)c1cc(O)c(O)c(OC(=O)c2cc(O)c(O)c(O)c2)c1)c1cc(O)c(O)c(OC(=O)c2cc(O)c(O)c(O)c2)c1 [Tannic Acid]
expression of key genes for adipogenesis (PPAR-gamma 2; c-fos; c-jun and c-myc) (insulin receptor (IR)): inhibit
phosphorylation of the insulin receptor (IR) (insulin receptor (IR)): induces phosphorylation
translocation of the glucose transporter (GLUT 4) (insulin receptor (IR)): translocation

gurmarin
sweet taste of glucose and sucrose [13]: block

CN1[C@@H]2CC[C@H]1C[C@@H](OC(c1ccccc1)c1ccccc1)C2 [Cogentin]
release of dopamine formed from 14C-phenylalanine (synaptosomal dopamine): increased

CNCCC(Oc1ccc(C(F)(F)F)cc1)c1ccccc1 (centres unmarked) [fluoxitine]
development of hyperalgesia [8]: blocks
ingestion of saccharin solutions ([12]; normal rats): suppresses

From US20060062859A1, “Composition and method to optimize and customize nutritional supplement formulations by measuring genetic and metabolomic contributing factors to disease diagnosis, stratification, prognosis, metabolism, and therapeutic outcomes” (priority 2004, published 2006)
